Source: PMC4379058, “The Biochemical Properties of the Arabidopsis Ecto-Nucleoside Triphosphate Diphosphohydrolase AtAPY1 Contradict a Direct Role in Purinergic Signaling” (PLoS ONE, 2015)

Columns and labels:
Assay in all cases: discontinuous molybdate phosphate release assay
AtAPY1 [1] = target: T1, AtAPY1 (Arabidopsis thaliana, UniProt Q9SQG2); format: biochemical; design: gene APY1; full-length with TM, C-terminal linker and His6 tag, HEK293 cells; Ni-NTA elution fraction, not enriched; 52 kDa theoretical
T1 sequence (Q9SQG2 1-471): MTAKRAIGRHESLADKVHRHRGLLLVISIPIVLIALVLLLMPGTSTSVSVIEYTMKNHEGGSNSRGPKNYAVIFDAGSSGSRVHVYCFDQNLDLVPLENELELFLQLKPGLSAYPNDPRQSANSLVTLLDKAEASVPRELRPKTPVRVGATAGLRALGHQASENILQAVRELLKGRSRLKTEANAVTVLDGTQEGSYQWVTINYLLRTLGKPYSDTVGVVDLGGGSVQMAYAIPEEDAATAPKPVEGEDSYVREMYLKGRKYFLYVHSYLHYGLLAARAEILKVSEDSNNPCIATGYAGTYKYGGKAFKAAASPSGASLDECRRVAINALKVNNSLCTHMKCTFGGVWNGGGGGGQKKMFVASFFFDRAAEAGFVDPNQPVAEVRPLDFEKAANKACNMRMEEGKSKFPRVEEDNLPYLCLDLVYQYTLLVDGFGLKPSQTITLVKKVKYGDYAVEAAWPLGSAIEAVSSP

AtAPY1-δTM = target: T2, AtAPY1-δTM (Arabidopsis thaliana, UniProt Q9SQG2); format: biochemical
T2 construct: gene APY1; 45 kDa theoretical
T2 sequence (Q9SQG2 67-470): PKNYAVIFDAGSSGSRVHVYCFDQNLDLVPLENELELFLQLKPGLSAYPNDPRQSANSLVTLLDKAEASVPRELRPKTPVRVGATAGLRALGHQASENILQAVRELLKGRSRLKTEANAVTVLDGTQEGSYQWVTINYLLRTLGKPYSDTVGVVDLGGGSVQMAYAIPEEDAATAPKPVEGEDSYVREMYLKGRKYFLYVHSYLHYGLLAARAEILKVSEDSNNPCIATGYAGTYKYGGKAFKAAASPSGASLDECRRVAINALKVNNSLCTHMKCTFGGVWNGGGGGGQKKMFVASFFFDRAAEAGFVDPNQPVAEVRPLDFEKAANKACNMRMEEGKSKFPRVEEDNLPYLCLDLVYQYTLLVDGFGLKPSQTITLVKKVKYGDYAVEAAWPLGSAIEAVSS

AtAPY1-GFP = target: T3, AtAPY1-GFP (Arabidopsis thaliana, UniProt Q9SQG2); format: biochemical; details: 3 mM UDP substrate, 2 mM MgCl2, pH 6.5, 30°C; immobilised enzyme
T3 construct: gene APY1; full-length, C-terminal GFP fusion (GFP from residue 472; 80 kDa), 35S transgenic Arabidopsis seedlings, immobilised on anti-GFP plate
T3 sequence (Q9SQG2 1-471): T1 sequence (Q9SQG2 1-471)

AtAPY1 [2] = target: T1, AtAPY1; design: gene APY1; details: 3 mM UDP substrate, 1 mM MgCl2, pH 6.5, 30°C

Structure (SMILES) | discontinuous molybdate phosphate release assay (AtAPY1 [1]) | discontinuous molybdate phosphate release assay (AtAPY1-δTM) | % inhibition (AtAPY1-GFP) | % inhibition at 1 mM (AtAPY1 [2]) [%]
Nc1nc2c(ncn2[C@@H]2O[C@H](COP(=O)(O)OP(=O)(O)O)[C@@H](O)[C@H]2O)c(=O)[nH]1 [GDP] | only GDP, IDP and UDP were hydrolyzed by AtAPY1 | AtAPY1 with or without TM is limited to the nucleotides GDP, IDP and UDP | – | –
O=c1ccn([C@@H]2O[C@H](COP(=O)(O)OP(=O)(O)O)[C@@H](O)[C@H]2O)c(=O)[nH]1 [UDP] | only GDP, IDP and UDP were hydrolyzed by AtAPY1 | AtAPY1 with or without TM is limited to the nucleotides GDP, IDP and UDP | – | –
[O]=[V]([OH])([OH])[OH] [vanadate] | – | – | The same inhibition pattern was found for AtAPY1-GFP | 54
